In patent US10555989B2, “Treatment of learning disabilities and other neurological disorders with SK channel inhibitor(s)” (priority 2015, dated 2020):

How the values were obtained:
[1] = system: mice exposed to EtOH prenatally; assay: Accelerating Rotarod motor learning before and after Tamapin injection (i.p.) in mice exposed to EtOH prenatally; format: in vivo, CD-1 mice
Procedure: Mice were tested using the Rotarod test described above on postnatal days 30, 31, 32 and 33 days as shown by the timeline in FIG. 5A. Thus, the mice were tested for the motor learning before and after the Tamapin injection (i.p.).

[2] = target: T1, KCNN2 (Mus musculus, UniProt P58390); assay: Electrophysiology: tamapin-sensitive medium afterhyperpolarization (mAHP) in primary motor cortex slices; format: cell-based, mice; settings: Tamapin 100 nM
T1 construct: Coronal slices containing primary motor cortex (300 μm) were prepared; from tissue; host or cells: acute coronal slices of primary motor cortex from P30 mice, layer II/III pyramidal neurons
Procedure: Electrophysiology: Coronal slices containing primary motor cortex (300 μm) were prepared as described above by using a vibrating blade microtome (Leica VT 1000S) from DNA (HSE-FLP0, CAG GFP and RFP FRT, 2 μg/μl each) electroporated mice (P30) brain. The recording chamber was perfused with oxygenated (95% O2/5% CO2) aCSF at 2 ml/min at room temperature. DNA electroporated primary motor cortex neurons were visualized through an infrared charge-coupled device (CCD) camera (C2741-79; Hamamatsu Photonics, Hamamatsu, Japan). The electrodes were filled with internal solution containing (in mM) 130 […], 10 KCl, 10 HEPES, 10 EGTA, 2 MgCl2, 2 Na2-ATP and 0.3 Na-GTP (pH 7.3; electrode resistances: 4-6 MΩ). Cells were recorded in the whole-cell voltage or current clamp mode with a holding potential of −60 mV using a patch-clamp amplifier (700B; Molecular Devices, Sunnyvale, Calif. USA). Series resistance was compensated. The output of the amplifier was digitized using an A/D converter board (Digidata 1322; Molecular Devices) with a sampling rate of 10 kHz, and recorded on a hard disk by data acquisition software (pCLAMP10; Molecular Devices). For the mAHP, cells were held at −60 mV under current clamp mode and action potentials were evoked through injecting positive current. LTP was induced electrically under voltage clamp mode by applying single 1-sec train (100 Hz, 100 μA, Isoflexm, A.M.P.I; CPI, Carl Pisaturo Standord University).
Example 4 KCNN2 Antagonist, Tamapin (100 nM), Affects the Medium Duration Afterhyperpolarization (mAHP) in Reporter-Positive Pyramidal Neurons in M1
(FIGS. 4A-4C, panels a4-c4) Left panels: Cumulative distributions of the amplitude of action potential and the mean amplitude of action potentials (insets)recorded from control (black)- and Tamapin (red)-stimulated neurons. Right panels: Firing frequencies, showing significant increase in RFP^+ neurons. *P=0.016 by Student's t-test.

[3] = system: SK2 channels; settings: cited from earlier work
[4] = system: heat shock factor 1 (Hsf1); settings: alcohol regimen i.p. at E16.5 and E17.5
Procedure: In utero electroporation was carried out as described [1-3]. Briefly, the plasmid for Flippase-FRT based reporter of heat shock factor 1 (Hsf1) activation was co-electroporated with EGFP-f plasmid (Addgene, 2 μg/μl each).
By using this method, the cells that had robust prenatal Hsf1 activation were labeled by RFP reporter.
The RFP reporter expression was induced upon Hsf1 activation in a subset of GFP-positive neurons. […] Pups were screened using an epifluorescence stereomicroscope at postnatal days (P1) that had GFP-positive cells in their primary motor cortex. Further experiments were performed on these mice i.e., single cell sampling, electrophysiology study, immunohistochemistry (IHC) and neurons morphology at P30.

[5] = system: CD-1 mice
Procedure: Pregnant mice CD-1 mice purchased from Charles River Company and bred under a light-dark cycle at a constant temperature were injected i.p. with 2 g/kg with either PBS (control) or ethanol (EtOH) thus exposing fetal mice in utero to PBS or EtOH. Thirty days after mice were born (day P30) motor skills of the control and EtOH-treated groups were compared using Rotarod test. The treatment timeline for the mice is shown in FIG. 1A and the Rotarod test is depicted by FIG. 1B.
For assessment of motor learning behavior, mice (P30) were carried out using an accelerating Rotarod apparatus (TSE Instruments) over 3 repeated trials (5 minutes per trial)/day for 2 consecutive days before testing phase. The Rotarod testing involves placing the mice on a rotating bar and determining the length of time that they can retain their balance as the rate of rotation is increased (max 80 rpm, for 5 min). On the day of testing, mice were kept in their home cages and acclimated to the testing room for at least 15 min. 2 min acclimation session at 2 rpm one time prior to the test phase was performed. Testing phase consisted of 3 trials per day separated by 30 min each for 2 consecutive days (total 6 trials). Each trail was terminated when mouse fell off or reached maximum 5 min (maximum speed). During the trials, mice that moved 180° (same direction of rotation) were gently turned around, face forward, to opposite direction of rotation. The latency to fall from a rotating rod was scored automatically with infrared sensors in a Rotamex 5 rotarod (Columbus Inst.; Columbus, Ohio).

T1 sequence (P58390 266-839): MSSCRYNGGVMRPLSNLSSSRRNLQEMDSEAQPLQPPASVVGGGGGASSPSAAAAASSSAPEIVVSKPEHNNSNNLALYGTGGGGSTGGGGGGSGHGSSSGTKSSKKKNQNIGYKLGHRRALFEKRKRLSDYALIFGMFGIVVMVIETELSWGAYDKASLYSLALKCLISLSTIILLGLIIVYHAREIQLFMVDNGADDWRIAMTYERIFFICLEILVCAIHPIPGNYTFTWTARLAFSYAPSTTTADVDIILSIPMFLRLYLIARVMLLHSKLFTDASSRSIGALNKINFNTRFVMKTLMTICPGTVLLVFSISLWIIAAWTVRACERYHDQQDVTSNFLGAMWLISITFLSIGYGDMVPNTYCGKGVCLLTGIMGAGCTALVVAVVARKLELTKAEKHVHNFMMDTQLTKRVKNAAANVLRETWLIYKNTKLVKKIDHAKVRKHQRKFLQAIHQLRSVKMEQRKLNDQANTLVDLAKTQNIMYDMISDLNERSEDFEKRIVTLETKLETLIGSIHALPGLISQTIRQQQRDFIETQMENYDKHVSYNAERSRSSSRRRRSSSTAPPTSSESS

| Compound | initial motor coordination (FIG. 5C) ([1]; EtOH-exposed mice) | motor learning (latency to fall, FIG. 5B) ([1]; EtOH-exposed mice, trial 7-12, Tamapin i.p. vs vehicle, P=0.0001) | latency to fall at the first trial followed by injection (trial 7), vehicle vs Tamapin ([1]; PBS-exposed and EtOH-exposed groups, P=0.302 and 0.960) | initial motor coordination (FIG. 5F) ([1]; PBS-exposed mice) | effects on motor learning (FIG. 5G) ([1]; PBS-exposed mice, trial 7-12, P=0.596) | motor learning / learning rate (FIG. 5D) ([1]; Tamapin-injected EtOH-exposed mice, trial 7-12, P=0.015) | effects of fetal exposure to EtOH ([1]; summary of Example 5) | firing frequency ([2]; EtOH-exposed RFP+ neurons, P=0.016) | medium afterhyperpolarization (mAHP) ([2]; EtOH-exposed RFP+ pyramidal neurons, M1, P30 slices, P=0.009) | effects on mAHP and firing in RFP- neurons ([2]; RFP- neurons in PBS- or EtOH-exposed brains) | rank order of affinity for SK channels ([3]; functional property of native tamapin) | SK channel selectivity ([3]; known property) | effects in brain structure [4] | learning and motor skills ([5]; exposure of fetal mice in utero vs control, summary of Example 1) | initial motor coordination (terminal speed at trial 1, FIG. 1D) ([5]; in utero EtOH vs PBS, P30, P=0.579) | learning rates (learning index, Rotarod, FIG. 1C) ([5]; in utero exposure, 2 g/kg i.p. to pregnant mice, P30, males and females, vs PBS) | mean Rotarod terminal speed of control mice relative to EtOH-treated mice (FIG. 1F) ([5]; trial 1 and trial 6) |
| --- | --- | --- | --- | --- | --- | --- | --- | --- | --- | --- | --- | --- | --- | --- | --- | --- | --- |
| AFCNLRRCELSCRSLGLLGKCIGEECKCVPY [Tamapin] | not affected | improved the motor learning | similar | not affected | No effects | rescued | significantly reversed | increased the firing frequency | reduced the mAHP | no significant effects | SK2 channel>SK3>SK1>SK4 | selective blocker of SK2 channels | – | – | – | – | – |
| CCO [EtOH, ethanol] | – | – | – | – | – | – | – | – | – | – | – | – | did not induce any obvious effects | negatively affects | not affected | decreased | significantly higher |
